# Experimental data: US9938260B2, “Soluble guanylate cyclase activators and their use” (GlaxoSmithKline Intellectual Property Development Limited, priority 2014, dated 2018)
# Structures can show the parent of a compound that is named as a salt.
# Target: T1, soluble guanylate cyclase (sGC) (Rattus norvegicus, UniProt P20595)
# T1 construct: endogenous in cells; host or cells: primary rat aortic smooth muscle cells
# T1 sequence (P20595 1-619): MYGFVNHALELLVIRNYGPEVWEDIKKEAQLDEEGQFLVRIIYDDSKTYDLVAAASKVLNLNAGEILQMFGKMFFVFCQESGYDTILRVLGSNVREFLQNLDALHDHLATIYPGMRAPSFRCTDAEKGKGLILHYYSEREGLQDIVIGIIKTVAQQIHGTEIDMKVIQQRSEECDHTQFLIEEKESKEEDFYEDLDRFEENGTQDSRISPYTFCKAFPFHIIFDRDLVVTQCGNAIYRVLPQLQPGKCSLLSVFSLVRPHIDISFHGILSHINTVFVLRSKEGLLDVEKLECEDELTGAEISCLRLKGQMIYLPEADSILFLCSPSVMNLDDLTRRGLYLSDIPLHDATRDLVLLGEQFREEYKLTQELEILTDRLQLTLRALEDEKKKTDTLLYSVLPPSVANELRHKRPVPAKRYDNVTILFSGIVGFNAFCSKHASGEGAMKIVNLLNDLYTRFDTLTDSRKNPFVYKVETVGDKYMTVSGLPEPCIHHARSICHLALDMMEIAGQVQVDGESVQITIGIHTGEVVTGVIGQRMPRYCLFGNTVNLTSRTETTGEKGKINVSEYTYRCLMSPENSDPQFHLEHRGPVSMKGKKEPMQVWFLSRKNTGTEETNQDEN
# T1 sequence (P19686 1-690 partner): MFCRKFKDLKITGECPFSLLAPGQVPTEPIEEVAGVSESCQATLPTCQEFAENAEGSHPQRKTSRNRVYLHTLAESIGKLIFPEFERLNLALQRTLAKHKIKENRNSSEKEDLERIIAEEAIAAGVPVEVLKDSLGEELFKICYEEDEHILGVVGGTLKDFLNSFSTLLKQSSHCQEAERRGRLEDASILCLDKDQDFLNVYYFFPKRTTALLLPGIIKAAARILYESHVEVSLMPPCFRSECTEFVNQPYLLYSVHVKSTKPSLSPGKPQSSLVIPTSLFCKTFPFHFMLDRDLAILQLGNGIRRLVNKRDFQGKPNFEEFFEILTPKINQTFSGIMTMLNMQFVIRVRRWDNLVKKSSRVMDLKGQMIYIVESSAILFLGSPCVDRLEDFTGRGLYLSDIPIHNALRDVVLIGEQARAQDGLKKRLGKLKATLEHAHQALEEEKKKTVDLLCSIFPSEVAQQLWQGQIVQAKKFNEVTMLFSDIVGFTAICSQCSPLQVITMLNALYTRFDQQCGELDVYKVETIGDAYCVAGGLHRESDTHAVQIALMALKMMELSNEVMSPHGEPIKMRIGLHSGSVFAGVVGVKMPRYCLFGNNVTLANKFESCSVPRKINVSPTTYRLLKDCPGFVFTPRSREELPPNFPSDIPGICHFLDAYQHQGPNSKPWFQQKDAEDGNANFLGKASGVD
# Assay: Biological cellular assay: sGC activity by phosphorylation of VASP in rat aortic smooth muscle cells
# Type: cell-based
# Settings: primary rat aortic smooth muscle cells, pre-incubated with 10 μM ODQ, 30 min at 37° C., phospho-VASP (pSer239) fluorescent signal; read-out: Cell assay pEC50 (converted)
# Procedure: The activity of soluble guanylate cyclase (sGC) was tested in an assay based on measuring phosphorylation of the protein kinase G (PKG) substrate vasodilator-stimulated phosphoprotein (VASP) in rat aortic smooth muscle cells. […] Dimethylsulfoxide (DMSO) vehicle and varying concentrations of the compound to be tested were then added. Following a 30 min incubation at 37° C., media was aspirated and the cells were rinsed with phosphate-buffered saline (PBS) and fixed with 4% formaldehyde in PBS by incubating at room temperature for 20 min. Cells were then washed with PBS and permeabilized for 10 min using 0.1% triton X-100 in PBS. Following PBS rinsing, the cells were blocked for 90 min at room temperature with blocking buffer. The buffer was aspirated and the cells were treated overnight at 4° C. with primary antibody (pSer239-VASP, rabbit polyclonal Ab) diluted 1:500 in blocking buffer. Following three washes with 0.05% Tween 20, the cells were treated for 1 h at room temperature with a fluorescent labeled secondary antibody (IRDye® 800CW Donkey Anti-Rabbit IgG) diluted 1:2500 in blocking buffer with 0.05% Tween 20. Following two washes with PBS, infrared fluorescence was measured using an Odyssey Infrared Imaging System. The activity of a test compound was determined as the pEC50 value which is the concentration able to increase by 50% (vs. Bmax) the phospho-VASP fluorescent signal. Front. Pharmacol., 5 Jul. 2012|doi: 10.3389/fphar.2012.00128, Volume 3 July, 2012, Article number 128.
row,Compound,EC50 [nM]
1,"Cc1cc(C2CCN(C(=O)CC3COC3)CC2)ccc1COc1c(F)cc(F)cc1-c1cccc(N2CCC(C(=O)O)CC2)n1 [Example 76, 1-(6-(3,5-difluoro-2-((2-methyl-4-(1-(2-(oxetan-3-yl)acetyl)piperidin-4-yl)benzyl)oxy)phenyl)pyridin-2-yl)piperidine-4-carboxylic acid, Sodium salt]",1
2,"Cc1cc(C2CCN(C(=O)[C@@H]3CCOC3)CC2)ccc1COc1c(F)cc(F)cc1-c1cccc(N2CCC(C(=O)O)CC2)n1 [Example 73, (R)-1-(6-(3,5-difluoro-2-((2-methyl-4-(1-(tetrahydrofuran-3-carbonyl)piperidin-4-yl)benzyl)oxy)phenyl)pyridin-2-yl)piperidine-4-carboxylic acid, Sodium salt]",0.0891
3,"Cc1cc(C2CCN(C3CCOC3)CC2)ccc1COc1c(F)cc(F)cc1-c1cccc(N2CCC(C(=O)O)CC2)n1 (stereo not shown) [Example 42, 1-(6-(3,5-difluoro-2-((2-methyl-4-(1-(tetrahydrofuran-3-yl)piperidin-4-yl)benzyl)oxy)phenyl)pyridin-2-yl)piperidine-4-carboxylic acid, Sodium salt]",2.51
4,"Cc1cc(C2CCN(C(=O)CC3CCOC3)CC2)ccc1COc1c(F)cc(F)cc1-c1cccc(N2CCC(C(=O)O)CC2)n1 (stereo not shown) [Example 79, 1-(6-(3,5-difluoro-2-((2-methyl-4-(1-(2-(tetrahydrofuran-3-yl)acetyl)piperidin-4-yl)benzyl)oxy)phenyl)pyridin-2-yl)piperidine-4-carboxylic acid, Sodium salt]",1.26
5,"Cc1cc(C2CCN(C(=O)CC(=O)O)CC2)ccc1COc1c(F)cc(F)cc1-c1cccc(N2CCC(C(=O)O)CC2)n1 [Example 81, 1-(6-(2-((4-(1-(2-carboxyacetyl)piperidin-4-yl)-2-methylbenzyl)oxy)-3,5-difluorophenyl)pyridin-2-yl)piperidine-4-carboxylic acid, di-Sodium salt]",15.8
6,"Cc1cc(C2CCN(C3CC3)CC2)ccc1COc1c(F)cc(F)cc1-c1cccc(N2CCC(C(=O)O)CC2)n1 [Example 45, 1-(6-(2-((4-(1-cyclopropylpiperidin-4-yl)-2-methylbenzyl)oxy)-3,5-difluorophenyl)pyridin-2-yl)piperidine-4-carboxylic acid, Sodium salt]",3.16

# Continued, values first:
row,EC50 [nM],Compound
1,31.6,"Cc1cc(C2CCN(CCO)CC2)ccc1COc1c(F)cc(F)cc1-c1cccc(N2CCC(C(=O)O)CC2)n1 [Example 51, 1-(6-(3,5-difluoro-2-((4-(1-(2-hydroxyethyl)piperidin-4-yl)-2-methylbenzyl)oxy)phenyl)pyridin-2-yl)piperidine-4-carboxylic acid, Sodium salt]"
2,158,"Cc1nc(C2CCN(C3CCOC3)CC2)ccc1COc1c(F)cc(F)cc1-c1cccc(N2CCC(C(=O)O)CC2)n1 (stereo not shown) [Example 20, 1-(6-(3,5-difluoro-2-((2-methyl-6-(1-(tetrahydrofuran-3-yl)piperidin-4-yl)pyridin-3-yl)methoxy)phenyl)pyridin-2-yl)piperidine-4-carboxylic acid]"
3,0.501,"Cc1cc(C2CCN(CC(F)(F)F)CC2)ccc1COc1c(F)cc(F)cc1-c1cccc(N2CCC(C(=O)O)CC2)n1 [Example 5, 1-(6-(3,5-difluoro-2-((2-methyl-4-(1-(2,2,2-trifluoroethyl)piperidin-4-yl)benzyl)oxy)phenyl)pyridin-2yl)piperidine-4-carboxylic acid]"
4,20,"Cc1nc(C2CCN(C(=O)C3COC3)CC2)ccc1COc1c(F)cc(F)cc1-c1cccc(N2CCC(C(=O)O)CC2)n1 [Example 30, 1-(6-(3,5-difluoro-2-((2-methyl-6-(1-(oxetane-3-carbonyl)piperidin-4-yl)pyridin-3-yl)methoxy)phenyl)pyridin-2-yl)piperidine-4-carboxylic acid, Sodium salt,]"
5,1.26,"O=C(O)C1CCN(c2cccc(-c3cc(F)cc(F)c3OCc3ccc(C4CCN(CC(F)(F)F)CC4)cc3OC3COC3)n2)CC1 [Example 90, 1-(6-(3,5-difluoro-2-((2-(oxetan-3-yloxy)-4-(1-(2,2,2-trifluoroethyl)piperidin-4-yl)benzyl)oxy)phenyl)pyridin-2-yl)piperidine-4-carboxylic acid, Sodium salt]"
6,10,"Cc1nc(C2CCN(CC(F)(F)F)CC2)ccc1COc1c(F)cc(F)cc1-c1cccc(N2CCC(C(=O)O)CC2)n1 [Example 14, 1-(6-(3,5-difluoro-2-((2-methyl-6-(1-(2,2,2-trifluoroethyl)piperidin-4-yl)pyridin-3-yl)methoxy)phenyl)pyridin-2-yl)piperidine-4-carboxylic acid]"
7,10,"Cc1cc(C2CCN(CC(F)(F)F)CC2)ncc1COc1c(F)cc(F)cc1-c1cccc(N2CCC(C(=O)O)CC2)n1 [Example 9, 1-(6-(3,5-difluoro-2-((4-methyl-6-(1-(2,2,2-trifluoroethyl)piperidin-4-yl)pyridin-3-yl)methoxy)phenyl)pyridin-2-yl)piperidine-4-carboxylic acid, sodium salt]"
